{
  "source": "patent EP0252380B1",
  "about": "“Antibiotic LL-E19020 alpha and beta” (AMERICAN CYANAMID COMPANY, priority 1986, dated 1988)",
  "key": {"Staphylococcus aureus": {"system": "Staphylococcus aureus", "test": "Minimum inhibitory concentration by agar dilution (Table VI)", "assay_type": "cell-based", "conditions": "7 strains tested"}, "[1]": {"test": "Weight gains and feed efficiency in broiler chicks treated with E19020 alpha (Table IX A)", "assay_type": "in vivo", "conditions": "for FEED/GAIN 0-3 WEEKS: control 1.43; for FEED/GAIN 0-7 WEEKS: control 1.99; for WEIGHT GAIN IN GRAMS 0-3 WEEKS: control 608; for WEIGHT GAIN IN GRAMS 0-7 WEEKS: control 2145", "protocol": "Five male and five female one day old Peterson X Arbor Acres chicks are allotted to starter battery cages by weight. Cages are randomized to treatment groups with seven replicates per treatment. […] The positive standard is penicillin at 200 ppm. Diets are prepared weekly."}},
  "note": "Marks after values point to notes of the source that are not given here.",
  "data": [
    {"smiles": "C/C=C\\C=C\\[C@@H]1O[C@](O)([C@H](CO[C@H]2C[C@@H](OC)[C@@H](O[C@@H]3C[C@@H](OC)[C@@H](O[C@H]4C[C@H](OC)[C@H](O)[C@H](C)O4)[C@H](C)O3)[C@@H](C)O2)C(=O)NC/C=C/C=C(\\C)[C@@H](OC)[C@H](C)[C@H]2C[C@H](O)[C@H](/C=C/C=C/C=C/C(=O)O)O2)[C@H](OC(=O)Cc2ccccc2)[C@H](O)C1(C)C", "note": "[LL-E19020 alpha]", "values": [
      {"measurement": "MIC", "setting": "Staphylococcus aureus", "result": "≧ 256 µg/ml"},
      {"measurement": "FEED/GAIN % IMPROVEMENT OVER CONTROLS 0-3 WEEKS", "setting": "[1]; 6.25 PPM", "result": 3.5, "unit": "%"},
      {"measurement": "FEED/GAIN % IMPROVEMENT OVER CONTROLS 0-7 WEEKS", "setting": "[1]; 6.25 PPM", "result": 5.0, "unit": "%"},
      {"measurement": "WEIGHT GAIN % IMPROVEMENT OVER CONTROLS 0-3 WEEKS", "setting": "[1]; 6.25 PPM", "result": 4.4, "unit": "%"},
      {"measurement": "WEIGHT GAIN % IMPROVEMENT OVER CONTROLS 0-7 WEEKS", "setting": "[1]; 6.25 PPM", "result": 1.8, "unit": "%"},
      {"measurement": "FEED/GAIN 0-3 WEEKS", "setting": "[1]; 6.25 PPM", "result": "1.38**"},
      {"measurement": "FEED/GAIN 0-7 WEEKS", "setting": "[1]; 6.25 PPM", "result": "1.89**"},
      {"measurement": "WEIGHT GAIN IN GRAMS 0-3 WEEKS", "setting": "[1]; 6.25 PPM", "result": "635* GRAMS"},
      {"measurement": "WEIGHT GAIN IN GRAMS 0-7 WEEKS", "setting": "[1]; 6.25 PPM", "result": 2183, "unit": "GRAMS"},
      {"measurement": "FEED/GAIN % IMPROVEMENT OVER CONTROLS 0-3 WEEKS", "setting": "[1]; 12.5 PPM", "result": 3.5, "unit": "%"},
      {"measurement": "FEED/GAIN % IMPROVEMENT OVER CONTROLS 0-7 WEEKS", "setting": "[1]; 12.5 PPM", "result": 4.0, "unit": "%"},
      {"measurement": "WEIGHT GAIN % IMPROVEMENT OVER CONTROLS 0-3 WEEKS", "setting": "[1]; 12.5 PPM", "result": 6.3, "unit": "%"},
      {"measurement": "WEIGHT GAIN % IMPROVEMENT OVER CONTROLS 0-7 WEEKS", "setting": "[1]; 12.5 PPM", "result": 2.5, "unit": "%"},
      {"measurement": "FEED/GAIN 0-3 WEEKS", "setting": "[1]; 12.5 PPM", "result": "1.38**"},
      {"measurement": "FEED/GAIN 0-7 WEEKS", "setting": "[1]; 12.5 PPM", "result": "1.91**"},
      {"measurement": "WEIGHT GAIN IN GRAMS 0-3 WEEKS", "setting": "[1]; 12.5 PPM", "result": "647* GRAMS"},
      {"measurement": "WEIGHT GAIN IN GRAMS 0-7 WEEKS", "setting": "[1]; 12.5 PPM", "result": 2198, "unit": "GRAMS"},
      {"measurement": "FEED/GAIN % IMPROVEMENT OVER CONTROLS 0-3 WEEKS", "setting": "[1]; 25 PPM", "result": 3.5, "unit": "%"},
      {"measurement": "FEED/GAIN % IMPROVEMENT OVER CONTROLS 0-7 WEEKS", "setting": "[1]; 25 PPM", "result": 5.0, "unit": "%"},
      {"measurement": "WEIGHT GAIN % IMPROVEMENT OVER CONTROLS 0-3 WEEKS", "setting": "[1]; 25 PPM", "result": 8.4, "unit": "%"},
      {"measurement": "WEIGHT GAIN % IMPROVEMENT OVER CONTROLS 0-7 WEEKS", "setting": "[1]; 25 PPM", "result": 5.7, "unit": "%"},
      {"measurement": "FEED/GAIN 0-3 WEEKS", "setting": "[1]; 25 PPM", "result": "1.38**"},
      {"measurement": "FEED/GAIN 0-7 WEEKS", "setting": "[1]; 25 PPM", "result": "1.89**"},
      {"measurement": "WEIGHT GAIN IN GRAMS 0-3 WEEKS", "setting": "[1]; 25 PPM", "result": "659** GRAMS"},
      {"measurement": "WEIGHT GAIN IN GRAMS 0-7 WEEKS", "setting": "[1]; 25 PPM", "result": "2267* GRAMS"},
      {"measurement": "FEED/GAIN % IMPROVEMENT OVER CONTROLS 0-3 WEEKS", "setting": "[1]; 50 PPM", "result": 2.8, "unit": "%"},
      {"measurement": "FEED/GAIN % IMPROVEMENT OVER CONTROLS 0-7 WEEKS", "setting": "[1]; 50 PPM", "result": 4.0, "unit": "%"},
      {"measurement": "WEIGHT GAIN % IMPROVEMENT OVER CONTROLS 0-3 WEEKS", "setting": "[1]; 50 PPM", "result": 5.6, "unit": "%"},
      {"measurement": "WEIGHT GAIN % IMPROVEMENT OVER CONTROLS 0-7 WEEKS", "setting": "[1]; 50 PPM", "result": 2.8, "unit": "%"},
      {"measurement": "FEED/GAIN 0-3 WEEKS", "setting": "[1]; 50 PPM", "result": "1.39*"},
      {"measurement": "FEED/GAIN 0-7 WEEKS", "setting": "[1]; 50 PPM", "result": "1.91**"},
      {"measurement": "WEIGHT GAIN IN GRAMS 0-3 WEEKS", "setting": "[1]; 50 PPM", "result": "642* GRAMS"},
      {"measurement": "WEIGHT GAIN IN GRAMS 0-7 WEEKS", "setting": "[1]; 50 PPM", "result": 2206, "unit": "GRAMS"},
      {"measurement": "FEED/GAIN % IMPROVEMENT OVER CONTROLS 0-3 WEEKS", "setting": "[1]; 100 PPM", "result": 5.6, "unit": "%"},
      {"measurement": "FEED/GAIN % IMPROVEMENT OVER CONTROLS 0-7 WEEKS", "setting": "[1]; 100 PPM", "result": 4.0, "unit": "%"},
      {"measurement": "WEIGHT GAIN % IMPROVEMENT OVER CONTROLS 0-3 WEEKS", "setting": "[1]; 100 PPM", "result": 7.3, "unit": "%"},
      {"measurement": "WEIGHT GAIN % IMPROVEMENT OVER CONTROLS 0-7 WEEKS", "setting": "[1]; 100 PPM", "result": 2.8, "unit": "%"},
      {"measurement": "FEED/GAIN 0-3 WEEKS", "setting": "[1]; 100 PPM", "result": "1.35**"},
      {"measurement": "FEED/GAIN 0-7 WEEKS", "setting": "[1]; 100 PPM", "result": "1.91**"},
      {"measurement": "WEIGHT GAIN IN GRAMS 0-3 WEEKS", "setting": "[1]; 100 PPM", "result": "652** GRAMS"},
      {"measurement": "WEIGHT GAIN IN GRAMS 0-7 WEEKS", "setting": "[1]; 100 PPM", "result": 2204, "unit": "GRAMS"}
    ]}
  ]
}
